HELM strings list units from the 5' end as sugar, base in round brackets, then linkage (d deoxyribose, r ribose, m 2'-O-methyl, p phosphodiester). Strings are as the collection lists them, not checked against the first reports. ss, as = sense and antisense strand
Also: test system not given here.

The conditions of this data set: siRNA.
Regarding “RNA1{m(G)p.r(G)p.m(A)p.r(A)p.m(G)p.r(U)p.m(C)p.r(C)p.m(A)p.r(C)p.m(C)p.r(U)p.m(U)p.r(C)p.m(U)p.r(C)p.m(C)p.r(G)p.m(A)p.r(T)p.r(T)}|RNA2{m(U)p.r(C)p.r(G)p.r(G)p.r(A)p.r(G)p.r(A)p.r(A)p.r(G)p.r(G)p.m(U)p.r(G)p.r(G)p.r(A)p.r(C)p.m(U)p.m(U)p.r(C)p.r(C)p.r(T)p.r(T)}$$$RNA1{StrandType:ss}|RNA2{StrandType:as}$”, the target mRNA knockdown was 27%. The figure for “RNA1{m(G)p.r(G)p.m(A)p.r(G)p.m(C)p.r(A)p.m(C)p.r(G)p.m(C)p.r(U)p.m(U)p.r(A)p.m(C)p.r(U)p.m(A)p.r(C)p.m(C)p.r(U)p.m(U)p.r(T)p.r(T)}|RNA2{r(A)p.r(A)p.r(G)p.r(G)p.r(U)p.r(A)p.r(G)p.r(U)p.r(A)p.r(A)p.r(G)p.r(C)p.r(G)p.r(U)p.r(G)p.r(C)p.r(U)p.r(C)p.r(C)p.r(T)p.r(T)}$$$RNA1{StrandType:ss}|RNA2{StrandType:as}$” is 51%; for “RNA1{m(G)p.r(G)p.m(A)p.r(G)p.m(C)p.r(U)p.m(A)p.r(G)p.m(A)p.r(C)p.m(G)p.r(G)p.m(G)p.r(U)p.m(A)p.r(C)p.m(G)p.r(A)p.r(G)p.r(T)p.r(T)}|RNA2{r(C)p.r(U)p.r(C)p.r(G)p.r(U)p.r(A)p.r(C)p.r(C)p.r(C)p.r(G)p.r(U)p.r(C)p.r(U)p.r(A)p.r(G)p.r(C)p.r(U)p.r(C)p.r(C)p.r(T)p.r(T)}$$$RNA1{StrandType:ss}|RNA2{StrandType:as}$” it is 75%. The same measure for “RNA1{m(G)p.r(G)p.m(C)p.r(C)p.m(A)p.r(A)p.m(A)p.r(G)p.m(U)p.r(A)p.m(A)p.r(U)p.m(C)p.r(G)p.m(U)p.r(G)p.m(G)p.r(U)p.m(U)p.r(T)p.r(T)}|RNA2{r(A)p.r(A)p.r(C)p.r(C)p.r(A)p.r(C)p.r(G)p.r(A)p.r(U)p.r(U)p.r(A)p.r(C)p.r(U)p.r(U)p.r(U)p.r(G)p.r(G)p.r(C)p.r(C)p.r(T)p.r(T)}$$$RNA1{StrandType:ss}|RNA2{StrandType:as}$”: 37%; for “RNA1{m(G)p.r(G)p.m(C)p.r(C)p.m(U)p.r(U)p.m(U)p.r(C)p.m(U)p.r(C)p.m(U)p.r(C)p.m(U)p.r(A)p.m(G)p.r(A)p.m(U)p.r(A)p.m(U)p.r(T)p.r(T)}|RNA2{r(A)p.r(U)p.r(A)p.r(U)p.r(C)p.r(U)p.r(A)p.r(G)p.r(A)p.r(G)p.r(A)p.r(G)p.r(A)p.r(A)p.r(A)p.m(G)p.r(G)p.r(C)p.r(C)p.r(T)p.r(T)}$$$RNA1{StrandType:ss}|RNA2{StrandType:as}$”: 80%; for “RNA1{m(G)p.r(G)p.m(C)p.r(G)p.m(G)p.r(G)p.m(C)p.r(U)p.m(C)p.r(U)p.m(U)p.r(U)p.m(C)p.r(C)p.m(U)p.r(A)p.m(U)p.r(U)p.m(C)p.r(T)p.r(T)}|RNA2{r(G)p.r(A)p.r(A)p.r(U)p.r(A)p.r(G)p.r(G)p.r(A)p.r(A)p.r(A)p.r(G)p.r(A)p.r(G)p.r(C)p.r(C)p.r(C)p.r(G)p.r(C)p.r(C)p.r(T)p.r(T)}$$$RNA1{StrandType:ss}|RNA2{StrandType:as}$”: 51%. The same measure for “RNA1{m(G)p.r(G)p.m(G)p.r(A)p.m(G)p.r(G)p.m(U)p.r(C)p.m(U)p.r(U)p.m(A)p.r(G)p.m(A)p.r(A)p.m(A)p.r(A)p.m(C)p.r(A)p.m(C)p.r(T)p.r(T)}|RNA2{r(G)p.r(U)p.r(G)p.r(U)p.r(U)p.r(U)p.r(U)p.r(C)p.r(U)p.r(A)p.r(A)p.r(G)p.r(A)p.r(C)p.r(C)p.r(U)p.r(C)p.r(C)p.r(C)p.r(T)p.r(T)}$$$RNA1{StrandType:ss}|RNA2{StrandType:as}$”: 17%. For the substance “RNA1{m(G)p.r(G)p.m(G)p.r(G)p.m(C)p.r(U)p.m(C)p.r(U)p.m(U)p.r(C)p.m(U)p.r(A)p.m(C)p.r(A)p.m(U)p.r(U)p.m(C)p.r(C)p.m(C)p.r(T)p.r(T)}|RNA2{r(G)p.r(G)p.r(G)p.r(A)p.r(A)p.r(U)p.r(G)p.r(U)p.r(A)p.r(G)p.r(A)p.r(A)p.r(G)p.r(A)p.r(G)p.r(C)p.r(C)p.r(C)p.r(C)p.r(T)p.r(T)}$$$RNA1{StrandType:ss}|RNA2{StrandType:as}$”, the target mRNA knockdown was 51%.

Substance “RNA1{m(G)p.r(G)p.m(U)p.r(A)p.m(G)p.r(A)p.m(A)p.r(U)p.m(A)p.r(G)p.m(G)p.r(U)p.m(U)p.r(U)p.m(U)p.r(C)p.m(C)p.r(C)p.m(C)p.r(T)p.r(T)}|RNA2{r(G)p.r(G)p.r(G)p.r(G)p.r(A)p.r(A)p.r(A)p.r(A)p.r(C)p.r(C)p.r(U)p.r(A)p.r(U)p.r(U)p.r(C)p.r(U)p.r(A)p.r(C)p.r(C)p.r(T)p.r(T)}$$$RNA1{StrandType:ss}|RNA2{StrandType:as}$” had a target mRNA knockdown of 11%. The same measure for “RNA1{m(G)p.r(G)p.m(U)p.r(A)p.m(G)p.r(G)p.m(G)p.r(U)p.m(U)p.r(G)p.m(A)p.r(A)p.m(G)p.r(A)p.m(G)p.r(A)p.m(C)p.r(U)p.r(U)p.r(T)p.r(T)}|RNA2{r(A)p.r(A)p.r(G)p.r(U)p.r(C)p.r(U)p.r(C)p.r(U)p.r(U)p.r(C)p.r(A)p.r(A)p.m(C)p.r(C)p.r(C)p.r(U)p.m(A)p.r(C)p.r(C)p.r(T)p.r(T)}$$$RNA1{StrandType:ss}|RNA2{StrandType:as}$”: 58%. The same measure for “RNA1{m(G)p.r(U)p.m(A)p.r(C)p.m(U)p.r(C)p.m(U)p.r(G)p.m(A)p.r(U)p.m(G)p.r(A)p.m(G)p.r(G)p.m(A)p.r(A)p.m(G)p.r(A)p.m(G)p.r(T)p.r(T)}|RNA2{r(C)p.r(U)p.r(C)p.r(U)p.r(U)p.r(C)p.r(C)p.r(U)p.r(C)p.r(A)p.r(U)p.r(C)p.r(A)p.r(G)p.r(A)p.r(G)p.r(U)p.r(A)p.r(C)p.r(T)p.r(T)}$$$RNA1{StrandType:ss}|RNA2{StrandType:as}$”: 18%.

As for “RNA1{m(G)p.r(U)p.m(A)p.r(U)p.m(C)p.r(C)p.m(G)p.r(A)p.m(A)p.r(G)p.m(A)p.r(C)p.m(G)p.r(A)p.m(A)p.r(G)p.m(C)p.r(U)p.m(A)p.r(T)p.r(T)}|RNA2{r(U)p.m(A)p.r(G)p.r(C)p.r(U)p.r(U)p.r(C)p.r(G)p.r(U)p.r(C)p.r(U)p.r(U)p.r(C)p.r(G)p.r(G)p.m(A)p.r(U)p.m(A)p.r(C)p.r(T)p.r(T)}$$$RNA1{StrandType:ss}|RNA2{StrandType:as}$”, the target mRNA knockdown stood at 30%.

The substance “RNA1{m(G)p.r(U)p.m(C)p.r(U)p.m(A)p.r(U)p.m(G)p.r(C)p.m(C)p.r(A)p.m(A)p.r(G)p.m(A)p.r(A)p.m(G)p.r(G)p.m(G)p.r(A)p.m(G)p.r(T)p.r(T)}|RNA2{r(C)p.r(U)p.r(C)p.r(C)p.r(C)p.r(U)p.r(U)p.r(C)p.r(U)p.r(U)p.r(G)p.r(G)p.r(C)p.r(A)p.r(U)p.r(A)p.r(G)p.r(A)p.r(C)p.r(T)p.r(T)}$$$RNA1{StrandType:ss}|RNA2{StrandType:as}$” gave a target mRNA knockdown of 24%.

“RNA1{m(U)p.r(A)p.m(A)p.r(A)p.m(C)p.r(U)p.m(U)p.r(U)p.m(G)p.r(G)p.m(G)p.r(G)p.m(A)p.r(A)p.m(G)p.r(G)p.m(G)p.r(A)p.m(G)p.r(T)p.r(T)}|RNA2{r(C)p.r(U)p.r(C)p.r(C)p.r(C)p.r(U)p.r(U)p.r(C)p.r(C)p.r(C)p.r(C)p.r(A)p.r(A)p.r(A)p.r(G)p.r(U)p.r(U)p.r(U)p.r(A)p.r(T)p.r(T)}$$$RNA1{StrandType:ss}|RNA2{StrandType:as}$” had a target mRNA knockdown of 34%. Take “RNA1{m(U)p.r(A)p.m(A)p.r(A)p.m(G)p.r(C)p.m(U)p.r(G)p.m(G)p.r(A)p.m(A)p.r(A)p.m(G)p.r(G)p.m(G)p.r(A)p.m(C)p.r(G)p.m(G)p.r(T)p.r(T)}|RNA2{r(C)p.r(C)p.r(G)p.r(U)p.r(C)p.r(C)p.r(C)p.r(U)p.r(U)p.r(U)p.r(C)p.r(C)p.m(A)p.r(G)p.r(C)p.r(U)p.r(U)p.r(U)p.m(A)p.r(T)p.r(T)}$$$RNA1{StrandType:ss}|RNA2{StrandType:as}$”: the target mRNA knockdown worked out at 29%. “RNA1{m(U)p.r(A)p.m(G)p.r(C)p.m(C)p.r(A)p.m(G)p.r(A)p.m(G)p.r(C)p.m(C)p.r(A)p.m(A)p.r(A)p.r(G)p.m(A)p.r(A)p.r(G)p.r(C)p.r(T)p.r(T)}|RNA2{r(G)p.r(C)p.m(U)p.m(U)p.r(C)p.m(U)p.m(U)p.m(U)p.r(G)p.r(G)p.r(C)p.m(U)p.r(C)p.m(U)p.r(G)p.r(G)p.r(C)p.m(U)p.r(A)p.r(T)p.r(T)}$$$RNA1{StrandType:ss}|RNA2{StrandType:as}$” gave a target mRNA knockdown of 75%. The figure for “RNA1{m(U)p.r(A)p.r(A)p.r(A)p.r(C)p.r(U)p.r(U)p.m(U)p.r(G)p.r(G)p.r(G)p.r(G)p.r(A)p.r(A)p.r(G)p.r(G)p.r(G)p.r(A)p.r(G)p.r(T)p.r(T)}|RNA2{r(C)p.r(U)p.r(C)p.r(C)p.r(C)p.r(U)p.r(U)p.r(C)p.r(C)p.r(C)p.m(C)p.r(A)p.r(A)p.r(A)p.r(G)p.r(U)p.r(U)p.m(U)p.r(A)p.r(T)p.r(T)}$$$RNA1{StrandType:ss}|RNA2{StrandType:as}$” is 67%. With “RNA1{m(U)p.r(A)p.r(A)p.r(A)p.r(C)p.r(U)p.r(U)p.r(U)p.r(G)p.r(G)p.r(G)p.r(G)p.r(A)p.r(A)p.r(G)p.r(G)p.r(G)p.r(A)p.r(G)p.r(T)p.r(T)}|RNA2{r(C)p.r(U)p.r(C)p.m(C)p.r(C)p.r(U)p.r(U)p.r(C)p.r(C)p.r(C)p.r(C)p.r(A)p.r(A)p.r(A)p.r(G)p.r(U)p.r(U)p.r(U)p.r(A)p.r(T)p.r(T)}$$$RNA1{StrandType:ss}|RNA2{StrandType:as}$”, the target mRNA knockdown worked out at 72%. The same measure for “RNA1{m(U)p.r(A)p.r(A)p.r(A)p.r(G)p.r(C)p.m(U)p.r(G)p.r(G)p.r(A)p.r(A)p.r(A)p.r(G)p.r(G)p.r(G)p.r(A)p.r(C)p.r(G)p.r(G)p.r(T)p.r(T)}|RNA2{r(C)p.r(C)p.r(G)p.r(U)p.r(C)p.r(C)p.r(C)p.r(U)p.r(U)p.r(U)p.r(C)p.m(C)p.r(A)p.r(G)p.r(C)p.r(U)p.r(U)p.m(U)p.r(A)p.r(T)p.r(T)}$$$RNA1{StrandType:ss}|RNA2{StrandType:as}$”: 65%; for “RNA1{m(U)p.r(A)p.r(A)p.r(A)p.r(G)p.r(C)p.r(U)p.r(G)p.r(G)p.r(A)p.r(A)p.r(A)p.r(G)p.r(G)p.r(G)p.r(A)p.r(C)p.r(G)p.r(G)p.r(T)p.r(T)}|RNA2{r(C)p.r(C)p.r(G)p.r(U)p.r(C)p.r(C)p.r(C)p.r(U)p.r(U)p.r(U)p.r(C)p.r(C)p.r(A)p.r(G)p.r(C)p.r(U)p.r(U)p.m(U)p.r(A)p.r(T)p.r(T)}$$$RNA1{StrandType:ss}|RNA2{StrandType:as}$”: 67%.

The record behind these values is the OligoGym collection.
